# From patent publication US12128129B2, “Lactobacillus plantarum for skin care” (SYMRISE AG, priority 2019, dated 2024)
# Tests used:
# HaCaT keratinocytes [1] = experiment: IL-8 release after IL-1alpha stimulation of pre-treated keratinocytes (ELISA); format: cell-based, human; conditions: 0.25 mg/mL, 48 h pre-treatment, then 30 ng/mL IL-1alpha for 8 h
# Procedure: Anti-Inflammatory Effects of Lactobacillus plantarum HEAL 19 and HEAL 99 HaCaT keratinocytes were cultivated in 96-well plates using RPMI-A, medium sterile filtered with L-Glutamine, Capricorn, supplemented with 10% fetal calf serum (FCS), Capricorn. The plates were incubated at 37° C. and 5% CO2. After 24 hours starvation with cell culture medium (RPMI, 1% FCS) the cells were washed once. The anti-inflammatory substances/inactivated bacteria suspensions were suspended in starvation medium, applied and incubated for 24/48 h with parameters described above. […] To remove bacterial cells after pre-incubation all wells were washed with cell culture medium three times. IL-1alpha, Gibco, life technologies was dissolved in H2Odest, diluted in starvation medium and pipetted to wells, preferably at a concentration of 30 ng/mL. Alternatively, a heat inactivated Staphylococcus aureus (DSM799) suspension was used as pro-inflammatory agent in a concentration of 0.1 mg/mL-1 mg/mL dry mass. After 8 h incubation the supernatants were separated. All samples were stored at −80° C. until further analyses. IL-8 concentrations were measured with Human CXCL8/IL-8, DuoSet ELISA, Development Systems, R&D Systems. The experimental procedure was performed as described in the provided protocol. After calculating means of the duplicate/triplicate values and subtraction of the average zero standard optical density the calculation was done using four parameter logistic curve-fit for creating standard curves.
# [2] = tested on: ex vivo human skin models; experiment: IL-8 release of ex vivo human skin models after diesel particulate 1650b; format: cell-based; conditions: topical cosmetic formulation containing L. plantarum HEAL 19, stimulation with diesel particulate (1650b)
# Procedure: Ex Vivo Studies Ex vivo trials were done by Cutech Srl, Italy. Effects of described Lactobacillus strains on various parameters were analyzed in ex vivo skin models. Human skin from abdominal plastic surgery was used. Applications of heat inactivated bacteria suspensions were done systemically or topically, in formulation or solved in cell culture medium Tape stripping may be used. Concentrations and incubation times may vary. All data were processed in terms of mean, standard deviation and standard error of mean (SEM) for each treatment. Anti-Inflammatory Effects Above described ex vivo human skin models have been used to verify the anti-inflammatory potential of the L. plantarum strains. The models were treatment with a L. plantarum HEAL 19 cosmetic emulsion followed by the application of the external noxious agent and pollutant 1650b, simulating air pollution. At a selected endpoint, the organ cell culture medium has been withdrawn from wells and analyzed for IL-8 using Deluxe set Human IL-8 of Biolegend®, Inc.
# [3] = tested on: 3D epidermis model system for dry skin; experiment: Barrier improving efficacy on SDS damaged 3D skin models for dry skin (TEM of intercellular lipid lamellae); format: cell-based; conditions: 0.5% in a skin care formulation, topical, after SDS treatment
# Procedure: Barrier Improving Efficacy on SDS Damaged 3D Skin Models for Dry Skin
# For this purpose an in vitro study was performed on a 3D epidermis model system for dry skin. […] Disturbance of the epidermal barrier was measured as loss of intercellular lipid lamellae. The skin repair performance was determined by transmission electron microscopy (TEM) after treatment with L. plantarum HEAL 19 formulated in a cosmetic emulsion or placebo emulsion and then further cultivated to observe reformation of intercellular lipid lamellae.
# [4] = tested on: HEPKp 3 dimensional skin models; experiment: Induction of hyaluronic acid in HEPKp 3D skin models (ELISA); format: cell-based, human; conditions: 0.005% in cell culture medium, 8 days treatment
# Procedure: Induction of Hyaluronic Acid Human epidermal keratinocyte progenitors (HEPKp) generated 3d human skin models were cultivated and systemically treated with test substances. Briefly, defined concentrations of test substances were added to cell culture medium and each skin model was treated in cell culture dishes for up to 9 days at 37° C. and 5% CO2. After the treatment, collected supernatants were stored at −80° C. until further analyses. Viability of the cells was controlled by MTT standard method. Hyaluronic acid concentrations were measured by TECOmedical hyaluronic acid plus ELISA. The experimental procedure was performed as described in the provided protocol.
# HaCaT keratinocytes [5] = experiment: AMP gene expression in keratinocytes grown as mono-layer (real time PCR, TaqMan array); format: cell-based, human; conditions: for induction of β-Defensin 3, calculated RQ-value: HaCaT, RQ >2 = relevant induction
# Procedure: Effects of Lactobacillus Strains on AMP Gene Expression in Keratinocytes Grown as Mono-Layer
# AMP inductions were measured with real time PCR analysis using Taq-Man® Array fast 96-well plates.
# HaCaT keratinocytes were cultivated in EpiLife medium, cascade Biologics, Gibco, incl. HKGS, Gibco, life technologies. Test substances were diluted in equal medium and added in a volume of 2 mL per well on 6-well plates. All samples are tested on 100% confluent cells incubated at 37° C., 5% CO2. After 24 h incubation time all samples were removed and cells washed twice with Dulbecco's Phosphate Buffered Saline with Ca and Mg, Capricorn. RNA isolation was performed using RNeasy® Mini Kit, Qiagen. The procedure has been done as describes in the RNeasy Mini Handbook.
# Cells were lysed and precipitated with ethanol, the homogenate was washed three times using the spin column and the mRNA was eluated with purified water. Depending on the sample the procedure was slightly adjusted.
# RNA concentration was measured using μCuvetteG 1.0 and BioPhotometer, Eppendorf by measuring the absorption at 260 nm. Control values, like E260/280 or E260/230 were calculated simultaneously. Transcription was done with a minimum of 0.5-1 μg RNA per sample.
# Reverse transcription was done using high capacity RNA-to-cDNA Kit, Applied Biosystems. The procedure was based on the provided protocol. All samples were incubated in a PCR Thermocycler, Biometra running 60 min at 37° C. for reverse transcription, followed by 5 min at 95° C. (enzyme inactivation) and holding temperature at 4° C. in reaction room.
# Quantitative Real-Time PCR was done using StepOne Plus Fast Real Time PCR Instrument, Applied Biosystems. Initial steps of the RT-PCR included a first heating phase holding for 20 s at 95° C., followed by 40 cycles of cDNA denaturation for 3 s at 95° C. and annealing/elongation at 60° C. for 30 s.
# Analysis was done by 2-ACT Method—in detail: • 1. Standardization of Ct values with reference-gen (HPRT) ΔCTvaluegene=CTvaluegene−CTvalueReferencegene (HPRT) • 2. Subtraction of ACT-value of control sample (untreated) and ACT-value (treated) ΔΔCTvaluegene=ΔCTvaluetreated−ΔCTvaluecontrol • 3. Calculation of RQ-Ratio (relative quantification-value) RQ−value=2^−ΔΔCT
# A RQ-Value of >2 was defined as relevant induction of a gene.
# [6] = 0.05%, 24 h, gene arrays, induction defined as RQ-value >2
substance,measurement,setting,value
Lactobacillus plantarum HEAL 19 (DSM 15313) [L. plantarum HEAL 19],"IL-8 release reduced to, compared to not pre-treated IL-1alpha control",HaCaT keratinocytes [1],5.1%
same,"IL-8 detection in cell culture medium reduced to, compared to placebo control",[2],75%
same,repair performance (length of intercellular lipid lamellae),[3],increased repair performance
same,hyaluronic acid release compared to the medium control,[4],145%
same,"induction of β-Defensin 3, calculated RQ-value","HaCaT keratinocytes [5]; 0.0125% L. plantarum HEAL 19, 24 h",2.3
same,gene expression of Calprotectin,HaCaT keratinocytes [5]; [6],induced
same,gene expression of Lactotransferrin,HaCaT keratinocytes [5]; [6],Significantly induced
same,gene expression of Peptidase inhibitor 3,HaCaT keratinocytes [5]; [6],Significantly induced
same,gene expression of Psoriasin,HaCaT keratinocytes [5]; [6],Significantly induced
same,gene expression of RNase 7,HaCaT keratinocytes [5]; [6],Significantly induced
same,gene expression of Secretory leukocyte peptidase inhibitor,HaCaT keratinocytes [5]; [6],Significantly induced
same,gene expression of β-Defensin 1,HaCaT keratinocytes [5]; [6],induced
same,gene expression of β-Defensin 3,HaCaT keratinocytes [5]; [6],Significantly induced
same,gene expression of β-Defensin 4,HaCaT keratinocytes [5]; [6],Significantly induced
same,"induction of β-Defensin 3, calculated RQ-value","HaCaT keratinocytes [5]; 0.1% L. plantarum HEAL 19, 24 h",243.6
